Key:
[1] = molecular target: P450 3A4 (Homo sapiens, UniProt P08684); assay: in vitro
[2] = molecular target: P450 3A5 (Homo sapiens, UniProt P20815); assay: in vitro
Chain of P450 3A5 (P20815 whole entry): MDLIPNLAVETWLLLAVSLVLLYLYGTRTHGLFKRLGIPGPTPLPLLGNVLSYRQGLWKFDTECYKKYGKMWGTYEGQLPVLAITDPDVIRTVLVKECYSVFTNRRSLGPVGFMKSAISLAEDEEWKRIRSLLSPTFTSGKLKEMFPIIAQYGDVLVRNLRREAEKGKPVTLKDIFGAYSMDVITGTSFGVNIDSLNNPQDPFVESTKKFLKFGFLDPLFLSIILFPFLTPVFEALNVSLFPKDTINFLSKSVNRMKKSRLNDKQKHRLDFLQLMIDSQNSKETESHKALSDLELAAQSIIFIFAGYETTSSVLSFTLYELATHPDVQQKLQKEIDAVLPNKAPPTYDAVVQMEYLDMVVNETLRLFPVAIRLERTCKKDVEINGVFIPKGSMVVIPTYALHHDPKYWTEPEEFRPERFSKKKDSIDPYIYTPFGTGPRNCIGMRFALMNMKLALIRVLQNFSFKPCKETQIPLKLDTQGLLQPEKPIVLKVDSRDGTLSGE
Chain of P450 3A5 (P16435 2-677 partner): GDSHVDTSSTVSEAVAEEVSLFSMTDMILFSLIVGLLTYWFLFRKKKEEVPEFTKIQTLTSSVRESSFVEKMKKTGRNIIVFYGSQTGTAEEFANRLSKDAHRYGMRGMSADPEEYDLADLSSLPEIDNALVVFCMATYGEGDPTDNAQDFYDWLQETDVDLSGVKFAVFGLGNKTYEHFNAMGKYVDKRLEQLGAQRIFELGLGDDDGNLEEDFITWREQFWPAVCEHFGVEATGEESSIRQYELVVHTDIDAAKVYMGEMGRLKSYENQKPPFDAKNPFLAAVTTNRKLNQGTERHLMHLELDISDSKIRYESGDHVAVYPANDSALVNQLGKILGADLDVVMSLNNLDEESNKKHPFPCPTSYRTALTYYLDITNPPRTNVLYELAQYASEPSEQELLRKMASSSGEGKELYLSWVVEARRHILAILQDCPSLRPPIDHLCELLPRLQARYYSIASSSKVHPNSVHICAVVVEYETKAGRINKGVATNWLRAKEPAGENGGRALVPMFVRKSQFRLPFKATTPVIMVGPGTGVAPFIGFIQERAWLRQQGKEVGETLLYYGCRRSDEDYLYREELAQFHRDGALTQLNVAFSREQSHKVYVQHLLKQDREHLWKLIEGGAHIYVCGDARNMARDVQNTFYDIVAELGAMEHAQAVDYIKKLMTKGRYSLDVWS
Chain of P450 3A5 (P00167 2-134 partner): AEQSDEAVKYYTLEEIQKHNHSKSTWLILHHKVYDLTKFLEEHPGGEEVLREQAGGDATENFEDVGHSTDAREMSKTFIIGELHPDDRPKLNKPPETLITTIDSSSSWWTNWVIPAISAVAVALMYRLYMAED

Chain of P450 3A4 (P08684 2-503): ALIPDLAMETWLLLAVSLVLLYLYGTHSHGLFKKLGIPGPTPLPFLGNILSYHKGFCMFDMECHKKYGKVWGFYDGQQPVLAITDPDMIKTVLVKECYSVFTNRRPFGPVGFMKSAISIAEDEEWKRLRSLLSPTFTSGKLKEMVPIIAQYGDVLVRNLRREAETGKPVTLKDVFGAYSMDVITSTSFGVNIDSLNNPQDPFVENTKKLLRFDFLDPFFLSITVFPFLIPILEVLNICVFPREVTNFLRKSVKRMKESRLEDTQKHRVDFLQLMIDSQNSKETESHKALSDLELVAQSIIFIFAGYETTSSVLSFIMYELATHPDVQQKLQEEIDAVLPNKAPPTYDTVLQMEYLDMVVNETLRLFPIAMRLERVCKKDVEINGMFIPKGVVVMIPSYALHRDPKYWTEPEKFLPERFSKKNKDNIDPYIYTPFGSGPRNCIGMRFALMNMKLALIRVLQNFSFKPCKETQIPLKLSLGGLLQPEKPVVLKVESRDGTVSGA
Chain of P450 3A4 (P16435 2-677 partner): as the sequence (P16435 2-677 partner) above
Chain of P450 3A4 (P00167 2-134 partner): as the sequence (P00167 2-134 partner) above

With `CCC(=O)O[C@]1(C(=O)SCF)[C@H](C)C[C@H]2[C@@H]3C[C@H](F)C4=CC(=O)C=C[C@]4(C)[C@@]3(F)[C@@H](O)C[C@@]21C` [FLT, fluticasone propionate] the KI (inactivation) [1] was 3.5 µM and the KI (inactivation) [2] was 16 µM.

Source: PMC2924751 (Chemical research in toxicology, 2010)
